Consider 105 compounds from a flash point compilation (Sun et al. 2020).

Counter-ions that a name gives are not always drawn.

The compound `CCCCC(C)=O` [hexan-2-one] had a flash point of 23.00 °C.
Compound `NCCCCCCN` [hexane-1,6-diamine] gave a flash point of 81.00 °C.
As to `OCCCCCCO` [hexane-1,6-diol], the flash point was determined as 102.00 °C.
Regarding `CC(O)CCC(C)O` (stereo not given) [hexane-2,5-diol], the flash point came to 101.00 °C.
In turn, `O=C(O)CCCCC(=O)O` [hexanedioic acid] displayed a flash point of 191.00 °C.
In turn, `C=CC(=O)OCCCCCC` [hexyl prop-2-enoate] had a flash point of 68.00 °C.
Take `CCCCCCCCCCCCCCCCCCCC` [icosane]: the flash point is 100.00 °C.
With `Ic1ccccc1` [iodobenzene] the figure was 77.00 °C; with `O=C=Nc1ccccc1` [isocyanatobenzene], 56.00 °C; with `CN` [methanamine], 0.00 °C.
Next, `CS(=O)(=O)O` [methanesulfonic acid]: 189.00 °C; `CO` [methanol]: 11.00 °C.
`COC(=O)c1ccccc1N` [methyl 2-aminobenzoate] displayed a flash point of 104.00 °C.
In turn, `COC(=O)CCl` [methyl 2-chloroacetate] had a flash point of 52.00 °C.
With `C=C(C#N)C(=O)OC` [methyl 2-cyanoprop-2-enoate] the figure was 79.00 °C; with `COC(=O)C(C)O` (stereo not given) [methyl 2-hydroxypropanoate], 51.00 °C.
Next, `C=C(C)C(=O)OC` [methyl 2-methylprop-2-enoate]: 10.00 °C.
As for `COC(=O)CC(C)=O` [methyl 3-oxobutanoate], the flash point worked out at 70.00 °C.
`COC(=O)c1ccccc1` [methyl benzoate]: the flash point is 83.00 °C.
The compound `COC=O` [methyl formate] had a flash point of -32.00 °C.
With `CCCCC(=O)OC` [methyl pentanoate], the flash point was found to be 22.00 °C.
The compound `COS(=O)(=O)C(F)(F)F` [methyl trifluoromethanesulfonate] displayed a flash point of 38.00 °C.
Next, `CC1CCCCC1` [methylcyclohexane]: -4.00 °C; `CN=C=O` [methylimino(oxo)methane]: -7.00 °C.
The compound `CN=C=S` [methylimino(sulfanylidene)methane] registered a flash point of 35.00 °C.
`CSC` [methylsulfanylmethane] had a flash point of -38.00 °C.
`Oc1cccc2ccccc12` [naphthalen-1-ol] showed a flash point of 153.00 °C.
Compound `Nc1ccc2ccccc2c1` [naphthalen-2-amine] gave a flash point of 157.00 °C.
In the case of `Oc1ccc2ccccc2c1` [naphthalen-2-ol], the flash point was 153.00 °C.
`Nc1cccc2c(N)cccc12` [naphthalene-1,5-diamine] displayed a flash point of 226.00 °C.
In turn, `O=[N+]([O-])c1ccccc1` [nitrobenzene] gave a flash point of 88.00 °C.
The compound `CC=CCCCCCC` [non-2-ene] returned a flash point of 26.00 °C.
Compound `CCCCCCCC(C)=O` [nonan-2-one] yielded a flash point of 64.00 °C.
Consider `CCCCC(=O)CCCC` [nonan-5-one], for which the flash point worked out at 60.00 °C.
Next, `CCCCCCCCCS` [nonane-1-thiol]: 78.00 °C; `CCCCCCCCC` [nonane]: 31.00 °C.
Next, `C=CCCCCC=C` [octa-1,7-diene]: 9.00 °C.
With `CCCCCCCCCCCCCCCCCCO` [octadecan-1-ol] the figure was 200.00 °C.
Consider `CCCCCCCCCCCCCCCCCC(=O)O` [octadecanoic acid], for which the flash point came to 196.00 °C.
For `CCCCCCC(C)=O` [octan-2-one], the flash point was found to be 52.00 °C.
With `CCCCCCCCS` [octane-1-thiol] the figure was 46.00 °C; with `CCCCCCCCOC(=O)CCCCCCCC1OC1CCCCCCCC` (stereo not given) [octyl 8-(3-octyloxiran-2-yl)octanoate], 217.00 °C; with `C1CCOCC1` [oxane], -20.00 °C.
The compound `O=C1CCCCCO1` [oxepan-2-one] came in with a flash point of 127.00 °C.
As to `C1COC1` [oxetane], the flash point was -28.00 °C.
`OCC1CO1` (stereo not given) [oxiran-2-ylmethanol] returned a flash point of 72.00 °C.
`CCCCCCC(C)(C)C(=O)OCC1CO1` (stereo not given) [oxiran-2-ylmethyl 2,2-dimethyloctanoate] gave a flash point of 129.00 °C.
The compound `C=C(C)C(=O)OCC1CO1` (stereo not given) [oxiran-2-ylmethyl 2-methylprop-2-enoate] yielded a flash point of 83.00 °C.
Take `O=CC1CO1` (stereo not given) [oxirane-2-carbaldehyde]: the flash point is 31.00 °C.
Regarding `CCCCCCCCCCCCCCCCCCCCCCCCC` [pentacosane], the flash point was 120.00 °C.
Regarding `CCCCCN` [pentan-1-amine], the flash point was 7.00 °C.
Turning to `CCCC(C)=O` [pentan-2-one], the flash point turned out to be 7.00 °C.
On to `CCC(=O)CC` [pentan-3-one], for which the flash point worked out at 13.00 °C.
With `CCC(CC)OC(C)=O` [pentan-3-yl acetate], the flash point came out at 33.00 °C.
The compound `CCCCCS` [pentane-1-thiol] returned a flash point of 18.00 °C.
`CC(=O)CC(C)=O` [pentane-2,4-dione] displayed a flash point of 34.00 °C.
In the case of `CCCCC#N` [pentanenitrile], the flash point turned out to be 41.00 °C.
The compound `CCCCC(=O)O` [pentanoic acid] returned a flash point of 89.00 °C.
For `CCCCCOC(=O)CCC` [pentyl butanoate], the flash point is 57.00 °C.
`CCCCCON=O` [pentyl nitrite]: the flash point was 10.00 °C.
`c1ccc2c(c1)ccc1ccccc12` [phenanthrene] had a flash point of 171.00 °C.
With `Oc1ccccc1` [phenol], the flash point came to 79.00 °C.
In turn, `NNc1ccccc1` [phenylhydrazine] registered a flash point of 88.00 °C.
As for `NCc1ccccc1` [phenylmethanamine], the flash point worked out at 76.00 °C.
Turning to `SCc1ccccc1` [phenylmethanethiol], the flash point is 70.00 °C.
`c1ccc(COCc2ccccc2)cc1` [phenylmethoxymethylbenzene] displayed a flash point of 135.00 °C.
With `O=C(O)c1ccccc1C(=O)O` [phthalic acid] the figure was 168.00 °C.
With `C1CCNCC1` [piperidine] the figure was 3.00 °C.
For `C[O-].[K+]` [potassium;methanolate], the flash point was 11.00 °C.
`C=CC(N)=O` [prop-2-enamide] registered a flash point of 138.00 °C.
`C=CC#N` [prop-2-enenitrile] showed a flash point of 0.00 °C.
Next, `C=CCOC(C)=O` [prop-2-enyl acetate]: 22.00 °C; `C#CCO` [prop-2-yn-1-ol]: 33.00 °C; `C#CC(=O)O` [prop-2-ynoic acid]: 58.00 °C.
Compound `CCCO` [propan-1-ol] displayed a flash point of 25.00 °C.
For `C=C(C)C(=O)OC(C)C` [propan-2-yl 2-methylprop-2-enoate], the flash point amounted to 21.00 °C.
`CC(=O)OC(C)C` [propan-2-yl acetate] had a flash point of 2.00 °C.
For the compound `CC(C)OC(=O)Cl` [propan-2-yl carbonochloridate], the flash point came to 16.00 °C.
`CC(C)C1CCCCC1` [propan-2-ylcyclohexane] gave a flash point of 36.00 °C.
As for `CCC=O` [propanal], the flash point was -9.00 °C.
The compound `OCC(O)CO` [propane-1,2,3-triol] came in with a flash point of 160.00 °C.
`CC(N)CN` (stereo not given) [propane-1,2-diamine] gave a flash point of 33.00 °C.
Consider `NCCCN` [propane-1,3-diamine], for which the flash point came to 24.00 °C.
The compound `OCCCO` [propane-1,3-diol] came in with a flash point of 174.00 °C.
Turning to `SCCCS` [propane-1,3-dithiol], the flash point is 59.00 °C.
As to `CCC` [propane], the flash point was -104.00 °C.
Next, `N#CCC#N` [propanedinitrile]: 130.00 °C; `CCC#N` [propanenitrile]: 2.00 °C; `CCC(=O)Cl` [propanoyl chloride]: 12.00 °C.
Next, `Nc1cccnc1` [pyridin-3-amine]: 190.00 °C; `Nc1ccncc1` [pyridin-4-amine]: 164.00 °C; `NC(=O)c1cccnc1` [pyridine-3-carboxamide]: 182.00 °C.
With `O=C(O)c1cccnc1` [pyridine-3-carboxylic acid] the figure was 193.00 °C; with `c1ccncc1` [pyridine], 20.00 °C.
For the compound `O=C1CCCN1` [pyrrolidin-2-one], the flash point was 129.00 °C.
In turn, `C1CCNC1` [pyrrolidine] showed a flash point of 3.00 °C.
For `Cc1ccc(S(=O)(=O)[N-]Cl)cc1.[Na+]` [sodium;chloro-(4-methylphenyl)sulfonylazanide], the flash point is 192.00 °C.
`O=C(O)c1ccc(C(=O)O)cc1` [terephthalic acid] showed a flash point of 260.00 °C.
The compound `CC(C)(C)OOC(=O)c1ccccc1` [tert-butyl benzenecarboperoxoate] displayed a flash point of 93.00 °C.
For the compound `C=CC(=O)OC(C)(C)C` [tert-butyl prop-2-enoate], the flash point was 19.00 °C.
`C=CCCCCCCCCCCCC` [tetradec-1-ene]: the flash point came to 110.00 °C.
Turning to `CCO[Si](OCC)(OCC)OCC` [tetraethyl silicate], the flash point worked out at 37.00 °C.
Next, `C[CH2][Pb]([CH2]C)([CH2]C)[CH2]C` [tetraethylplumbane]: 93.00 °C.
On to `[CH3][Pb]([CH3])([CH3])[CH3]` [tetramethylplumbane], for which the flash point turned out to be 38.00 °C.
With `O=S1(=O)CCCC1` [thiolane 1,1-dioxide], the flash point worked out at 166.00 °C.
